Patent US8865704B2, “Wnt pathway antagonists” (Siena Biotech S.p.A., priority 2009, dated 2014)

Experiments:
[1] = test system: Wnt/β-catenin pathway; assay: Wnt reporter assay (TCF-Luciferase, Firefly) in DBTRG-05MG cells; assay type: cell-based; conditions: Homo sapiens, 24 hours after compound addition
Method in brief: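 DBTRG-05MG cells carrying a 4×TCF-driven firefly luciferase reporter, kept under Zeocin or Zeocin plus Hygromicin selection. Compounds added 36 hours after plating at 8 points from 60 μM to 0.185 μM (0.6% DMSO), triplicate, for 24 hours. Firefly and Renilla luminescence each expressed as % of control; IC50 from four-parameter sigmoid fit.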

[2] = test system: DBTRG cells; assay: Soft agar anchorage independent assay; assay type: cell-based; conditions: 504 h, colonies scored 3 weeks later, read-out: 1050 value in the soft agar assay
Procedure: The pharmacological activity of the compounds of the invention may be tested in vitro for growth inhibition against tumour cell lines. Such cell lines may, for example be representative of glioblastoma (such as DBTRG-05MG), or colorectal (for example DLD-1, HCT116) cancer. The different genetic background of the cancer cell will facilitate to understand to which level of the pathway the compounds work. If the cells harbour a truncated APC allele, the destruction complex activity is affected; if cells carry a gain of function mutation in the β-catenin gene, which prevents β-catenin protein degradation, this leads to constitutive activation of downstream genes. There are many assays available for testing the growth inhibition.
Soft Agar Anchorage Independent Assay
DBTRG cells were seeded into a 24-well format in the presence of carrier alone or compound (0.6% DMSO (v/v)). Each well is composed of two agar layers: the bottom layer consists of 0.6% Agar while the top has 0.35% Agar plus cells and compound. Cells (2500 per well) were incubated with 7 points dilution compound the day of the plating and the colonies were scored 3 weeks later after o/n staining with MTT solution. Imaging and counting of the colonies was done with the GelCount™ instrument (Oxford Optronix, UK). For IC50 determination the data were expressed as % of control, values were calculated using XLFit version 4.2, with a four parameters sigmoid function (XLFit model 205).

Compound	IC50 [1] [µM]	IC50 [2] [µM]
COc1ccc2[nH]c(=O)n(C[C@H]3CC[C@H](C(=O)N4CCN(C(=O)C(C)C)CC4)CC3)c(=O)c2c1 [Example 3, 3-[trans-4-(4-Isobutyryl-piperazine-1-carbonyl)-cyclohexylmethyl]-6-methoxy-1H-quinazoline-2,4-dione]	0.3 to 30	0.9 to 30
CCCC(=O)N1CCN(C(=O)[C@H]2CC[C@H](Cn3c(=O)c4ccccc4n(C)c3=O)CC2)CC1 [Example 5, 3-[trans-4-(4-Butyryl-piperazine-1-carbonyl)-cyclohexylmethyl]-1-methyl-1H-quinazoline-2,4-dione]	0.3 to 30	0.9 to 30
Cn1c(=O)n(C[C@H]2CC[C@H](C(=O)N3CCOCC3)CC2)c2cc(C(F)(F)F)ccc21 [Example 10, 1-Methyl-3-[trans-4-(morpholine-4-carbonyl)-cyclohexylmethyl]-5-trifluoromethyl-1,3-dihydro-benzoimidazol-2-one]	0.3 to 30	0.9 to 30
O=C(C1CCC(Cn2c(=O)[nH]c3ccccc3c2=O)CC1)N1CCN(c2ccccc2)CC1 (stereo not shown) [Example 18]	0.3 to 30	0.9 to 30
O=c1[nH]c2ccccc2c(=O)n1C[C@H]1CC[C@H](C(=O)N2CCN(c3ccc(F)cc3)CC2)CC1 [Example 20]	0.3 to 30	0.9 to 30
COc1ccccc1N1CCN(C(=O)[C@H]2CC[C@H](Cn3c(=O)[nH]c4ccccc4c3=O)CC2)CC1 [Example 21]	0.3 to 30	0.9 to 30
O=c1[nH]c2ccc(Cl)cc2c(=O)n1C[C@H]1CC[C@H](C(=O)N2CCN(c3ccccc3)CC2)CC1 [Example 26]	0.3 to 30	0.9 to 30
CC(=O)N1CCN(C(=O)[C@H]2CC[C@H](Cn3c(=O)[nH]c4ccc(Cl)cc4c3=O)CC2)CC1 [Example 27]	0.3 to 30	0.9 to 30
O=C(C1CCCC1)N1CCN(C(=O)[C@H]2CC[C@H](Cn3c(=O)[nH]c4ccccc4c3=O)CC2)CC1 [Example 29]	0.3 to 30	0.9 to 30
O=C(c1cccs1)N1CCN(C(=O)[C@H]2CC[C@H](Cn3c(=O)[nH]c4ccccc4c3=O)CC2)CC1 [Example 37]	0.3 to 30	0.9 to 30
O=C(C1CCC(Cn2c(=O)[nH]c3ccccc3c2=O)CC1)N1CCN(C(=O)C2CC2)CC1 (stereo not shown) [Example 47]	0.3 to 30	0.9 to 30
O=C(c1ccco1)N1CCN(C(=O)C2CCC(Cn3c(=O)[nH]c4ccccc4c3=O)CC2)CC1 (stereo not shown) [Example 48]	0.3 to 30	0.9 to 30
Cn1c(=O)n(C[C@H]2CC[C@H](C(=O)N3CCN(C(=O)C4CC4)CC3)CC2)c(=O)c2ccccc21 [Example 56]	0.3 to 30	0.9 to 30
O=c1[nH]c2ccccc2c(=O)n1C[C@H]1CC[C@H](C(=O)N2CCN(c3cnccn3)CC2)CC1 [Example 57]	0.3 to 30	0.9 to 30
CC(C)C(=O)N1CCN(C(=O)[C@H]2CC[C@H](Cn3c(=O)[nH]c4ccccc43)CC2)CC1 [Example 58]	0.3 to 30	0.9 to 30
O=C(CC1CCCCC1)N1CCN(C(=O)[C@H]2CC[C@H](Cn3c(=O)[nH]c4ccccc4c3=O)CC2)CC1 [Example 59]	0.3 to 30	0.9 to 30
O=C(C1CCC1)N1CCN(C(=O)[C@H]2CC[C@H](Cn3c(=O)[nH]c4ccccc4c3=O)CC2)CC1 [Example 60]	0.3 to 30	0.9 to 30
COCC(=O)N1CCN(C(=O)[C@H]2CC[C@H](Cn3c(=O)c4cc(OC)ccc4n(C)c3=O)CC2)CC1 [Example 66]	0.3 to 30	0.9 to 30
COc1ccc2c(c1)CN(C[C@H]1CC[C@H](C(=O)N3CCN(C(=O)C4CC4)CC3)CC1)C(=O)N2 [Example 71]	0.3 to 30	0.9 to 30
COc1ccc2[nH]c(=O)n(C[C@H]3CC[C@H](C(=O)N4CCN(C(=O)C5CC5)CC4)CC3)c(=O)c2c1 [Example 75]	0.3 to 30	0.9 to 30

The next lines start with the values.

IC50 [1] [µM]	IC50 [2] [µM]	Compound
0.3 to 30	0.9 to 30	COCC(=O)N1CCN(C(=O)[C@H]2CC[C@H](Cn3c(=O)[nH]c4ccc(OC)cc4c3=O)CC2)CC1 [Example 77]
0.3 to 30	0.9 to 30	COc1ccc2c(c1)c(=O)n(C[C@H]1CC[C@H](C(=O)N3CCN(C(=O)C4CC4)CC3)CC1)c(=O)n2C [Example 78]
0.3 to 30	0.9 to 30	O=C(C1CC1)N1CCN(C(=O)[C@H]2CC[C@H](Cn3c(=O)c4ccccc4n(CCF)c3=O)CC2)CC1 [Example 79]
0.3 to 30	0.9 to 30	Cn1c(=O)n(C[C@H]2CC[C@H](C(=O)N3CCN(C(=O)C4CC4)CC3)CC2)c2ccccc21 [Example 80]
0.3 to 30	0.9 to 30	COc1ccc2c(c1)c(=O)n(C[C@H]1CC[C@H](C(=O)N3CCN(C)C(=O)C3)CC1)c(=O)n2C [Example 92]
0.3 to 30	0.9 to 30	COc1ccc2[nH]c(=O)n(C[C@H]3CC[C@H](C(=O)N4CCN(C(C)=O)CC4)CC3)c(=O)c2c1 [Example 99]
0.3 to 30	0.9 to 30	COc1ccc2[nH]c(=O)n(C[C@H]3CC[C@H](C(=O)N4CCN(C(=O)[C@H]5CCCO5)CC4)CC3)c(=O)c2c1 [Example 109]
0.3 to 30	0.9 to 30	COC(=O)N1CCN(C(=O)[C@H]2CC[C@H](Cn3c(=O)[nH]c4ccc(OC)cc4c3=O)CC2)CC1 [Example 116]
0.3 to 30	0.9 to 30	COc1ccc2c(c1)c(=O)n(C[C@H]1CC[C@H](C(=O)N3CCN(C(=O)c4cncn4C)CC3)CC1)c(=O)n2C [Example 122]
0.3 to 30	0.9 to 30	COc1ccc2c(c1)n(C[C@H]1CC[C@H](C(=O)N3CCN(C(=O)C4CC4)CC3)CC1)c(=O)n2C [Example 135]
0.3 to 30	0.9 to 30	COc1ccc2c(c1)c(=O)n(C[C@H]1CC[C@H](C(=O)N3CCN(C(C)=O)CC3)CC1)c(=O)n2C [Example 136]
0.3 to 30	0.9 to 30	COc1ccc2c(c1)c(=O)n(C[C@H]1CC[C@H](C(=O)N3CCN(C(=O)c4ccno4)CC3)CC1)c(=O)n2C [Example 146]
0.3 to 30	0.9 to 30	Cc1ccc2c(n1)n(C[C@H]1CC[C@H](C(=O)N3CCN(C(=O)C4CC4)CC3)CC1)c(=O)n2C [Example 169]
0.3 to 30	0.9 to 30	COC(=O)N1CCN(C(=O)[C@H]2CC[C@H](Cn3c(=O)c4cc(OC)ccc4n(C)c3=O)CC2)CC1 [Example 175]
0.3 to 30	–	CC(=O)N1CCN(C(=O)[C@H]2CC[C@H](Cn3c(=O)n(C)c4ccc(C)nc43)CC2)CC1 [Example 207]
0.3 to 30	–	COCC(=O)N1CCN(C(=O)[C@H]2CC[C@H](Cn3c(=O)n(C)c4ccc(OC)nc43)CC2)CC1 [Example 208]
0.3 to 30	–	COc1cccc(NC(=O)[C@H]2CC[C@H](Cn3c(=O)n(C)c4ccc(OC)nc43)CC2)c1 [Example 209]
0.3 to 30	–	COc1ccc2c(c1)n(C[C@H]1CC[C@H](C(=O)N3CCN(C(=O)c4cc(C)nn4C)CC3)CC1)c(=O)n2C [Example 210]
0.3 to 30	–	COc1ccc2c(c1)n(C[C@H]1CC[C@H](C(=O)N3CCN(C(=O)c4nccn4C)CC3)CC1)c(=O)n2C [Example 211]
